ChEMBL document CHEMBL1153605, “Synthesis and in vivo antidiabetic activity of novel dispiropyrrolidines through [3+2] cycloaddition reactions with thiazolidinedione and rhodanine derivatives” (2009)

System: Rattus norvegicus
Test: Reduction of liver ALP level in alloxan-induced diabetic Wistar rat model at 36 mg/kg, po administered once daily for 15 days measured on day 18
Assay type: functional

| SMILES | Activity |
| --- | --- |
| COc1ccc([C@H]2CN(C)[C@@]3(C(=O)Nc4ccccc43)[C@@]23SC(=O)NC3=S)cc1OC | 42.3 KA/dl |
| CN1C[C@H](c2ccc(F)c(F)c2)[C@]2(SC(=O)NC2=S)[C@]12C(=O)Nc1ccccc12 | 37 KA/dl |
| COc1ccc([C@H]2CN(C)[C@@]3(C(=O)Nc4ccccc43)[C@@]23SC(=O)NC3=O)cc1OC | 48.5 KA/dl |
| CN1C[C@H](c2ccc(F)c(F)c2)[C@]2(SC(=O)NC2=O)[C@]12C(=O)Nc1ccccc12 | 41.3 KA/dl |
| CN1C[C@H](c2ccc(O)c(O)c2)[C@]2(SC(=O)NC2=S)[C@]12C(=O)Nc1ccccc12 | 43.8 KA/dl |
| Cc1ccc([C@H]2CN(C)[C@@]3(C(=O)Nc4ccccc43)[C@@]23SC(=O)NC3=O)cc1 | 38.3 KA/dl |

System: Rattus norvegicus
Test: Antidiabetic activity in alloxan-induced diabetic Wistar rat model assessed as reduction in blood glucose level at 36 mg/kg, po administered once daily for 15 days measured after 1 hr postdose
Assay type: functional

| SMILES | Activity |
| --- | --- |
| COc1ccc([C@H]2CN(C)[C@@]3(C(=O)Nc4ccccc43)[C@@]23SC(=O)NC3=S)cc1OC | 140.5 mg/dL |
| CN1C[C@H](c2ccc(F)c(F)c2)[C@]2(SC(=O)NC2=S)[C@]12C(=O)Nc1ccccc12 | 137.5 mg/dL |
| COc1ccc([C@H]2CN(C)[C@@]3(C(=O)Nc4ccccc43)[C@@]23SC(=O)NC3=O)cc1OC | 133.5 mg/dL |
| CN1C[C@H](c2ccc(F)c(F)c2)[C@]2(SC(=O)NC2=O)[C@]12C(=O)Nc1ccccc12 | 134.5 mg/dL |
| CN1C[C@H](c2ccc(O)c(O)c2)[C@]2(SC(=O)NC2=S)[C@]12C(=O)Nc1ccccc12 | 175.5 mg/dL |
| Cc1ccc([C@H]2CN(C)[C@@]3(C(=O)Nc4ccccc43)[C@@]23SC(=O)NC3=O)cc1 | 140.5 mg/dL |

System: Rattus norvegicus
Test: Reduction of liver GPT level in alloxan-induced diabetic Wistar rat model assessed per mg of protein at 36 mg/kg, po administered once daily for 15 days measured on day 18
Assay type: functional

| SMILES | Activity |
| --- | --- |
| COc1ccc([C@H]2CN(C)[C@@]3(C(=O)Nc4ccccc43)[C@@]23SC(=O)NC3=S)cc1OC | 576 U/mg protein |
| CN1C[C@H](c2ccc(F)c(F)c2)[C@]2(SC(=O)NC2=S)[C@]12C(=O)Nc1ccccc12 | 626 U/mg protein |
| COc1ccc([C@H]2CN(C)[C@@]3(C(=O)Nc4ccccc43)[C@@]23SC(=O)NC3=O)cc1OC | 698 U/mg protein |
| CN1C[C@H](c2ccc(F)c(F)c2)[C@]2(SC(=O)NC2=O)[C@]12C(=O)Nc1ccccc12 | 582 U/mg protein |
| CN1C[C@H](c2ccc(O)c(O)c2)[C@]2(SC(=O)NC2=S)[C@]12C(=O)Nc1ccccc12 | 646 U/mg protein |
| Cc1ccc([C@H]2CN(C)[C@@]3(C(=O)Nc4ccccc43)[C@@]23SC(=O)NC3=O)cc1 | 558 U/mg protein |

System: Rattus norvegicus
Test: Reduction of blood urea nitrogen level in alloxan-induced diabetic Wistar rat model at 36 mg/kg, po administered once daily for 15 days measured on day 18
Assay type: functional

| SMILES | Activity |
| --- | --- |
| COc1ccc([C@H]2CN(C)[C@@]3(C(=O)Nc4ccccc43)[C@@]23SC(=O)NC3=S)cc1OC | 35.5 mg/dL |
| CN1C[C@H](c2ccc(F)c(F)c2)[C@]2(SC(=O)NC2=S)[C@]12C(=O)Nc1ccccc12 | 38.5 mg/dL |
| COc1ccc([C@H]2CN(C)[C@@]3(C(=O)Nc4ccccc43)[C@@]23SC(=O)NC3=O)cc1OC | 41.8 mg/dL |
| CN1C[C@H](c2ccc(F)c(F)c2)[C@]2(SC(=O)NC2=O)[C@]12C(=O)Nc1ccccc12 | 35 mg/dL |
| CN1C[C@H](c2ccc(O)c(O)c2)[C@]2(SC(=O)NC2=S)[C@]12C(=O)Nc1ccccc12 | 39 mg/dL |
| Cc1ccc([C@H]2CN(C)[C@@]3(C(=O)Nc4ccccc43)[C@@]23SC(=O)NC3=O)cc1 | 37.5 mg/dL |

System: Rattus norvegicus
Test: Reduction of serum creatinine level in alloxan-induced diabetic Wistar rat model at 36 mg/kg, po administered once daily for 15 days measured on day 18
Assay type: functional

| SMILES | Activity |
| --- | --- |
| COc1ccc([C@H]2CN(C)[C@@]3(C(=O)Nc4ccccc43)[C@@]23SC(=O)NC3=S)cc1OC | 2.2 mg/dL |
| CN1C[C@H](c2ccc(F)c(F)c2)[C@]2(SC(=O)NC2=S)[C@]12C(=O)Nc1ccccc12 | 1.5 mg/dL |
| COc1ccc([C@H]2CN(C)[C@@]3(C(=O)Nc4ccccc43)[C@@]23SC(=O)NC3=O)cc1OC | 1.8 mg/dL |
| CN1C[C@H](c2ccc(F)c(F)c2)[C@]2(SC(=O)NC2=O)[C@]12C(=O)Nc1ccccc12 | 2.1 mg/dL |
| CN1C[C@H](c2ccc(O)c(O)c2)[C@]2(SC(=O)NC2=S)[C@]12C(=O)Nc1ccccc12 | 2 mg/dL |
| Cc1ccc([C@H]2CN(C)[C@@]3(C(=O)Nc4ccccc43)[C@@]23SC(=O)NC3=O)cc1 | 1.8 mg/dL |

System: Rattus norvegicus
Test: Reduction of serum GPT level in alloxan-induced diabetic Wistar rat model at 36 mg/kg, po administered once daily for 15 days measured on day 18
Assay type: functional

| SMILES | Activity |
| --- | --- |
| COc1ccc([C@H]2CN(C)[C@@]3(C(=O)Nc4ccccc43)[C@@]23SC(=O)NC3=S)cc1OC | 121 U/ml |
| CN1C[C@H](c2ccc(F)c(F)c2)[C@]2(SC(=O)NC2=S)[C@]12C(=O)Nc1ccccc12 | 137.5 U/ml |
| COc1ccc([C@H]2CN(C)[C@@]3(C(=O)Nc4ccccc43)[C@@]23SC(=O)NC3=O)cc1OC | 140.5 U/ml |
| CN1C[C@H](c2ccc(F)c(F)c2)[C@]2(SC(=O)NC2=O)[C@]12C(=O)Nc1ccccc12 | 132 U/ml |
| CN1C[C@H](c2ccc(O)c(O)c2)[C@]2(SC(=O)NC2=S)[C@]12C(=O)Nc1ccccc12 | 142.8 U/ml |
| Cc1ccc([C@H]2CN(C)[C@@]3(C(=O)Nc4ccccc43)[C@@]23SC(=O)NC3=O)cc1 | 129.8 U/ml |

System: Rattus norvegicus
Test: Antidiabetic activity in alloxan-induced diabetic Wistar rat model assessed as reduction in blood glucose level at 36 mg/kg, po administered once daily for 15 days measured after 6 hrs postdose
Assay type: functional

| SMILES | Activity |
| --- | --- |
| COc1ccc([C@H]2CN(C)[C@@]3(C(=O)Nc4ccccc43)[C@@]23SC(=O)NC3=S)cc1OC | 95.8 mg/dL |
| CN1C[C@H](c2ccc(F)c(F)c2)[C@]2(SC(=O)NC2=S)[C@]12C(=O)Nc1ccccc12 | 106.5 mg/dL |
| COc1ccc([C@H]2CN(C)[C@@]3(C(=O)Nc4ccccc43)[C@@]23SC(=O)NC3=O)cc1OC | 115.8 mg/dL |
| CN1C[C@H](c2ccc(F)c(F)c2)[C@]2(SC(=O)NC2=O)[C@]12C(=O)Nc1ccccc12 | 115.3 mg/dL |
| CN1C[C@H](c2ccc(O)c(O)c2)[C@]2(SC(=O)NC2=S)[C@]12C(=O)Nc1ccccc12 | 120.5 mg/dL |
| Cc1ccc([C@H]2CN(C)[C@@]3(C(=O)Nc4ccccc43)[C@@]23SC(=O)NC3=O)cc1 | 125.5 mg/dL |

System: Rattus norvegicus
Test: Antidiabetic activity in alloxan-induced diabetic Wistar rat model assessed as reduction in blood glucose level at 36 mg/kg, po administered once daily for 15 days measured after 3 hrs postdose
Assay type: functional

| SMILES | Activity |
| --- | --- |
| COc1ccc([C@H]2CN(C)[C@@]3(C(=O)Nc4ccccc43)[C@@]23SC(=O)NC3=S)cc1OC | 106.5 mg/dL |
| CN1C[C@H](c2ccc(F)c(F)c2)[C@]2(SC(=O)NC2=S)[C@]12C(=O)Nc1ccccc12 | 112.8 mg/dL |
| COc1ccc([C@H]2CN(C)[C@@]3(C(=O)Nc4ccccc43)[C@@]23SC(=O)NC3=O)cc1OC | 123.8 mg/dL |
| CN1C[C@H](c2ccc(F)c(F)c2)[C@]2(SC(=O)NC2=O)[C@]12C(=O)Nc1ccccc12 | 123.5 mg/dL |
| CN1C[C@H](c2ccc(O)c(O)c2)[C@]2(SC(=O)NC2=S)[C@]12C(=O)Nc1ccccc12 | 158.5 mg/dL |
| Cc1ccc([C@H]2CN(C)[C@@]3(C(=O)Nc4ccccc43)[C@@]23SC(=O)NC3=O)cc1 | 136.5 mg/dL |
